Earlier results as cited in patent US20060269583A1, “Process and composition for treating wood” (priority 2005, published 2006).

Conditions: in about 10 years under a given set of field conditions

- copper removed by leaching: ≤ 80%
Substance: copper amine carbonate complex
